Assay [1] in a line: Reaction rate of KI with 1O2 (I3− absorbance at 350 nm) under light and magnetic field. The class given is physicochemical. On the procedure: (1) The photosensitizers Rose Bengal (RB) and potassium iodide KI are dissolved in water, with the concentrations of photosensitizer and KI is 10 μmol/L and 10 mmol/L, respectively in the resulting solution. […] The above UV-vis absorption spectra tests are performed in the strength range of the magnetic field from 0 to 850 mT respectively.
(2) The photosensitizer chlorin e6 (Ce6, Chlorin e6) and potassium iodide KI are dissolved in water, with the concentrations of the photosensitizer and KI of 10 μmol/L and 10 mmol/L in the resulting solutions. In a magnetic field with certain strength, the solutions are exposed to a 635 nm LED lamp (light emitting diode) at a power of 5 mW·cm^−2, and tested for absorption spectra every 15 seconds over 5 min, and the absorbance at 350 nm is recorded to obtain absorbance versus time curves. The above UV-vis absorption spectra are obtained at a magnetic field strength range from 0 to 850 mT, respectively.
External magnetic field is supplied by East Transformer (Beijing) EM4 electromagnets. Ultraviolet-visible absorption spectra are tested with Agilent 8453 UV/Visible spectrometer equipped with Agilent 89090A thermostat (±0.1° C.).
Under irradiation conditions, photosensitizer is excited to produce singlet oxygen ^1O2, and KI reacts with ^1O2 to give I2 and target detector, iodine triion I3^−, characterized by absorption bands centered at 300 and 350 nm in UV-vis absorption spectrum. The reaction rate is R, which is proportional to the slope of absorbance-time curve of iodine triion I3^− at 350 nm.
In the present invention, the magnetic field effects (MFEs) is quantified by mfeR, the change rate of the reaction rate R, mfeR=(RB−R0)/R0×100%, where R0 is the reaction rate at a magnetic field strength of 0 mT and RB is the reaction rate at a magnetic field strength of B mT.
(3) The RB/KI solution in experiment (1) of this Example is placed in a magnetic field modulated with square wave (90 s for the first period, a magnetic field strength of 0 mT for the first 45 s and 100 mT for the last 45 s; 60 s for the last three cycles, a magnetic field strength of 0 mT for the first 30 s and 100 mT for the last 30 s). Under 561 nm LED (Light Emitting Diode) irradiation with 5 mW·cm^−2, absorption spectra are tested every 5 seconds over 5 min. and the absorbance at 350 nm is recorded, to obtain an absorbance-time curve, as shown in FIG. 6.

The test system of assay [2] is HeLa xenograft tumor. The experiment in a line: HeLa xenograft tumor growth in BALB/c nude mice with photodynamic treatment and magnetic field. The class given is in vivo. The note with it: RB 1.0 mg/kg intratumoral, 14 days. As for the experimental part:
Twenty-four five-weeks old female BALB/c nude mice are selected, 1×10^6 HeLa cells (in 200 μL 0.01 mol/L PBS buffer) are inoculated subcutaneously into the dorsal right flank of each mouse, and a xenograft tumor model is established (Five-weeks old female BALB/c nude mice are obtained from Beijing Agronomy and housed under standard environmental conditions. All animal procedures are approved by Beijing Agronomy Animal Care and Use Committee). After tumors growing up, 25 μL RB (1.0 mg/kg) or an equal volume of PBS buffer at a concentration of 0.01 mol/L are injected intratumorally.
The treatment conditions for dividing the mice into 8 groups (3 mice each) are as follows: • (1) Injection of PBS buffer-no light-no magnetic field (PBS-dark-0mT); • (2) Injection of PBS buffer-light-no magnetic field (PBS-light-0mT); • (3) Injection of PBS buffer-light-250mT magnetic field (PBS-light-250mT); • (4) Injection of PBS Buffer-Light-800mT magnetic field (PBS-light-800mT); • (5) RB-light-no magnetic field (RB-light-0mT) injection (RB-light-0mT); • (6) Injection of RB-light-100mT magnetic field (RB-light-100mT); • (7) Injection of RB-light-250mT magnetic field (RB-light-250mT); • (8) Inject RB-light-800mT magnetic field (RB-light-800mT).
All groups except group (1) receive light 5 min after injection at wavelength of 400-700 nm and power of 100 mW·cm^−2 and light time of 10 min. The tumor area of mice in groups (3), (4) and (6)-(8) are exposed to static magnetic field by using electromagnet during light exposure.
Test (one): Tumor size is monitored with digital calipers every other day for the following 14 days (peripheral measurements of tumors are performed […]), and tumors are calculated by Volume=Length×Width×[…]. Results for groups (2), (4), (5), (7), (8) are shown in FIG. 16, in which, ** is statistical probability p<0.01; *** is p<0.005, p<0.05 is considered significant. Each group is sacrificed 3 mice on day 14 post-injection, tumor tissues are collected for photographing and weighing, and tumor tissues are removed from groups (2), (3), (4), (5), (7), (8) as shown in FIG. 17; the rate of mass change of the tumor tissue in groups (5), (7), (8) is shown in FIG. 18, and the rate of mass change is (ωB−ω0)/ω0×100%, where ωB is the tumor mass under magnetic field conditions and ω0 is the tumor mass in group (5).

Here are results for one compound from US20250041624A1, “METHOD FOR ENHANCING ACTIVITY OF PHOTOSENSITIZER BY MAGNETIC FIELD” (PEKING UNIVERSITY, priority 2021, published 2025).

Take `O=C1OC2(c3cc(I)c(O)c(I)c3Oc3c2cc(I)c(O)c3I)c2c(Cl)c(Cl)c(Cl)c(Cl)c21` [RB, Rose Bengal]: the “mfeR (change rate of reaction rate R of KI with 1O2)” value in assay [1] (RB 10 μmol/L, KI 10 mmol/L, 561 nm 5 mW·cm−2, maximum at MF=80-135 mT) is on record as 46%; in assay [1] (RB 10 μmol/L, KI 10 mmol/L, 561 nm 5 mW·cm−2, minimum at MF=14 mT), 33%; in assay [1] (RB, MF from 34 to 355 mT, FIG. 5), above 0%; in assay [1] (RB, MF from 50 to 220 mT, FIG. 5) it was above 20%. Further, the “increase of R value on average compared to 0 mT” value in assay [1] (RB/KI, square-wave modulated field, 100 mT vs 0 mT, FIG. 7) was “about 45%”. The “tumor growth (volume and mass)” value in assay [2] (group (5) RB-light-0mT, 400-700 nm 100 mW·cm−2 10 min) is “inhibition of tumor growth”; in assay [2] (group (7) RB-light-250mT), “further inhibition of tumor growth”. The “magnetic field effect on tumor growth” value in assay [2] (group (6) RB-light-100mT) and in assay [2] (group (8) RB-light-800mT) was “no significant effect on tumor growth” throughout.
